Measurements reported in paper PMC12707362, “Targeting Aurora Kinases as Essential Cell‐Cycle Regulators to Deliver Multi‐Stage Antimalarials Against Plasmodium Falciparum” (Angewandte Chemie (International Ed. in English), 2025).
Like-named read-outs stand apart in the source and are kept apart here.

Key:
[1] = Cytotoxicity counter-screening (MTT), CHO; settings: Chinese hamster
Protocol: HepG2 and CHO cells were maintained at 37 °C, under a humidified atmosphere of 5% CO2, in DMEM high glucose media (Gibco) supplemented with 10% heat-inactivated FBS and 1% (v/v) Penicillin-Streptomycin antibiotics. […] The supernatant was discarded, and the cell pellet was resuspended in 1 mL DMEM media for cell counting by Trypan Blue. To determine the toxicity, cells were resuspended and seeded at a concentration of 1x10^4 cells/well in a 96-well plate and incubated for 24 h^[9,10]. Cells were treated in duplicate with a 10-fold serial dilution starting at 100 ug/mL of inhibitor in new media. After 48 h incubation, the viable cells were measured using the MTT tetrazolium reduction assay, where sterile 25 µL of a 5 mg/mL MTT was added to each well and incubated for 4 h before the […] formazan crystals were dissolved with 100 µL DMSO (Merck) per well. The absorbance, a measure of intracellular reduction of MTT, was measured at 540 nm (Multiskan GO). Emetine (50 µM) was included as a positive drug control, and the background was subtracted from all data before being normalised to the untreated^[9,10].

recombinant PfPKG = biological target: T1, recombinant PfPKG (Plasmodium falciparum, UniProt Q8I719); assay: ADP-Glo kinase assay, PfPKG; type: biochemical
T1 construct: Full-length PfPKG (PF3D7_1436600); His tag (N); made in house; host or cells: E. coli (first-named host, read as 'respectively')
T1 sequence (Q8I719 whole entry): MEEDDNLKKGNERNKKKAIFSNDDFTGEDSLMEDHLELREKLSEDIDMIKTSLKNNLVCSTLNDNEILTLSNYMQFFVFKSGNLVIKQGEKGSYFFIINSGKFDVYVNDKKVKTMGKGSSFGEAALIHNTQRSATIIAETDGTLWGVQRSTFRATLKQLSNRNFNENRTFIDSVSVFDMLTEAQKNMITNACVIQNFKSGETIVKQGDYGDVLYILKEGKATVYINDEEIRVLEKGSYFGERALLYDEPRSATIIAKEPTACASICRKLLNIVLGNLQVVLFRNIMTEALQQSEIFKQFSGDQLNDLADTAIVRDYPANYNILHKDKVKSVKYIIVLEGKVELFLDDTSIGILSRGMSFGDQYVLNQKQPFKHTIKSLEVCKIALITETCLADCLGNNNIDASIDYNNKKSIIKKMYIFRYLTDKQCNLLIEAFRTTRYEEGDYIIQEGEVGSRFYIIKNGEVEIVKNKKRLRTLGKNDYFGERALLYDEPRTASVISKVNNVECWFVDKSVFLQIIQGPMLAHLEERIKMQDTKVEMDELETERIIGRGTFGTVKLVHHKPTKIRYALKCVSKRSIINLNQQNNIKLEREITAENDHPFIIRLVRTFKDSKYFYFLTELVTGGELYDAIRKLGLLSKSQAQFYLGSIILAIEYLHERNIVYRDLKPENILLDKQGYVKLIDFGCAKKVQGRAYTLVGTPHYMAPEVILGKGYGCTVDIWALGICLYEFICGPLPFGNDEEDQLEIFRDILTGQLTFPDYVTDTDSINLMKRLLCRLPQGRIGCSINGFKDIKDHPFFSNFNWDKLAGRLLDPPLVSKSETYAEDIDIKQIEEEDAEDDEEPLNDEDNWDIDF
Text: (§1) Full-length PfPKG (PF3D7_1436600)^[19] and PvPI4Kβ (PVX_098050)^[20] recombinant proteins were expressed in E. coli and baculovirus-insect cell expression systems. The kinase domain of PfCLK3 (PF3D7_1114700, Gln317 to Ser694) was expressed in E. coli Rosetta™(DE3)pLysS cells (kind gift from Rafael M. Couñago, CQMED, University of Campinas). Briefly, the N-terminal His-tagged kinases were purified using immobilized metal affinity chromatography, followed by anion exchange chromatography in the case of PfPKG, and size exclusion chromatography. Dose-response kinase inhibition assays were carried out using the ADP-Glo kinase assay kit^[21], with 1 nM PfPKG, 10 μM ATP, 20 μM […]-NH2, 1% (v/v) DMSO and inhibitor in PKG assay buffer (25 mM HEPES pH 7.4, 0.1 mg/mL BSA, 0.01% (v/v) Triton-X 100, 20 mM MgCl2, 2 mM DTT, 10 μM cGMP); or 6 nM PvPI4Kβ, 10 μM ATP, 0.1 mg/ml L-alpha-phosphatidylinositol, 1% (v/v) DMSO and inhibitor in PI4Kβ assay buffer (25 mM HEPES pH 7.4, 100 mM NaCl, 3 mM MgCl2, 1 mM DTT, 0.025 mg/ml BSA, 0.2% (v/v) Triton-X-100); or 15 nM PfCLK3, 10 μM ATP, 20 μM myelin basic protein, 1% (v/v) DMSO and inhibitor in assay buffer (50 mM HEPES pH 7.4, 0.1 mg/mL BSA, 0.01% (v/v) Triton-X 100, 20 mM MgCl2, 2 mM DTT). […] Mean IC50 values were calculated from two independent experiments, each with technical duplicates.

[2] = tested on: multidrug-resistant PfDd2 ABS parasites; assay: SYBR Green I proliferation assay, PfDd2 asexual blood stages; type: cell-based; settings: Plasmodium falciparum, DD2, read-out: Pf Dd2 ABS IC50
Protocol: (B) Antiplasmodial activity of nine anticancer aurora kinase inhibitors (selected based on their PfNF54 ABS activity) against P. falciparum multidrug-resistant ABS parasites (PfDd2 and PfK1). (C) Kinobead competitive inhibition data.
(§2) P. falciparum drug sensitive NF54 (PfNF54) and drug-resistant Dd2 (PfDd2, chloroquine, pyrimethamine and mefloquine resistant) strains were cultured in vitro in human O^+/A^+ erythrocytes (5% hematocrit) in complete medium at 2–5% parasitemia, 37 °C, shaking at 60 rpm under hypoxic conditions (90% N2, 5% O2 and 5% CO2). Immature and mature gametocytes were produced from P. falciparum 3D7elo1-pfs16-CBG99 (kind gift from Pietro Alano, ISS, Italy) ^[1] as described^[2,3] by simultaneously applying nutrient starvation and decreasing hematocrit to induce >97% ring-stage ABS parasites (0.5% parasitemia, 6% hematocrit). Gametocytogenesis was followed with daily media changes (including glucose) and ABS parasites removed with 50 mM N-acetylglucosamine (day 1–4 for stage II/III; days 3–7 for stage IV/V).
(§3) All inhibitors were dissolved in dimethyl sulfoxide (DMSO). Antiplasmodium activity of selected anti-cancer inhibitors was determined on P. falciparum NF54 and Dd2 strains, measuring SYBR Green I fluorescence (485 nm excitation, 538 nm emission) as an indicator of proliferation^[4]. Ring-stage ABS parasites (1% parasitemia, 1% hematocrit) were treated with compounds for 96 h at 37 °C with chloroquine disulphate (0.5 μM) as positive drug control. The activity of the inhibitors was tested against immature (>95% stage II/III) and late-stage (>90% stage IV/V) gametocytes using a luciferase reporter assay on 3D7elo1-pfs16-CBG99 ^[1]. […] Luciferase activity was determined using a non-lysing D-luciferin substrate (1 mM in 0.1 M citrate buffer, pH 5.5, 100 μL) and bioluminescence was detected with a GloMax® - Multi Detection System with Instinct® software.

recombinant PvPI4Kβ = recombinant PvPI4Kβ (Plasmodium vivax, UniProt A5KB26); assay: ADP-Glo kinase assay, PvPI4Kβ; type: biochemical
Chain of recombinant PvPI4Kβ (A5KB26 1-1525): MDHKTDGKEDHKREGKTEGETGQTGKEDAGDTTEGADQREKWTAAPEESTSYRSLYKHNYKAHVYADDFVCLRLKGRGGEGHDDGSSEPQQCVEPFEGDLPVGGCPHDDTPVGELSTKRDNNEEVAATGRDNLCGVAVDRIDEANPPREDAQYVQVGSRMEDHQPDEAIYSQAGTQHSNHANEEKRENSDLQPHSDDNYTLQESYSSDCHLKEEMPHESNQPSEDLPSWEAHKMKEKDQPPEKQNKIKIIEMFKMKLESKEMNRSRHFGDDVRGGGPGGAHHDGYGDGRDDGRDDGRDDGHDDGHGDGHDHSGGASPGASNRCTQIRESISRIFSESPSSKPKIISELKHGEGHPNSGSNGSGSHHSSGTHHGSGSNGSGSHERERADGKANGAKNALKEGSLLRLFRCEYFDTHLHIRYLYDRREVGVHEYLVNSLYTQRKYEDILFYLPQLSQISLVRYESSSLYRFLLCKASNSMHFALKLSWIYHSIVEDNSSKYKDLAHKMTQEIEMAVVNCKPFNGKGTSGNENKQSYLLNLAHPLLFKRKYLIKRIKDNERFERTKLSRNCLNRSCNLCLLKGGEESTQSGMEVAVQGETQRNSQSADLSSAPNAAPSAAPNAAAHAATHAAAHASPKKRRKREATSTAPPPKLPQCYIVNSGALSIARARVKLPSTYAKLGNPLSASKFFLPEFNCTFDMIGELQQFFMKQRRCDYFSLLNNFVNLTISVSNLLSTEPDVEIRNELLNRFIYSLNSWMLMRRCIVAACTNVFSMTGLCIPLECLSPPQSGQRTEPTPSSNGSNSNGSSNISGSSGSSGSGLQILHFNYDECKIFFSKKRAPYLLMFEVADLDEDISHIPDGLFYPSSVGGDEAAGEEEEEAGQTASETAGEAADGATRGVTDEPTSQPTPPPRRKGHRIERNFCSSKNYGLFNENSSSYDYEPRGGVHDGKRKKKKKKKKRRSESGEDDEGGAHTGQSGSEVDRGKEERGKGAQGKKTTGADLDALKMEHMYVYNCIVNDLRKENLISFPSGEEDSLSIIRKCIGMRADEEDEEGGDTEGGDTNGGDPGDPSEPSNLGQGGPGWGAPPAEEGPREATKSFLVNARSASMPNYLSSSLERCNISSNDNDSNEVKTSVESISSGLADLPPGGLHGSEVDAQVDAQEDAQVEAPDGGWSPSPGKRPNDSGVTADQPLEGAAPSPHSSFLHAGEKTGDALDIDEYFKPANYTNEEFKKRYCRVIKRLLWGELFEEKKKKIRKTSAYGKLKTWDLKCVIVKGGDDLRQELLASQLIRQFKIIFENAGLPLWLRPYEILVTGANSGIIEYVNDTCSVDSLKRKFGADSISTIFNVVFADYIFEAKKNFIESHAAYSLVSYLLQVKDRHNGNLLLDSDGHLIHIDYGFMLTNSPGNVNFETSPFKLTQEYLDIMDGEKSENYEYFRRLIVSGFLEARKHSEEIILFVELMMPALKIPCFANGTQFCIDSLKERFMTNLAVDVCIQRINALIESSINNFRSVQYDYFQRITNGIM
Text: as §1

[3] = tested on: immature (stage II/III) gametocytes, P. falciparum 3D7elo1-pfs16-CBG99; assay: Luciferase reporter assay, immature gametocytes; type: cell-based, Plasmodium falciparum; settings: 48 h; for inhibition at 5 µM: Plasmodium falciparum, read-out: Pf Early stage gametocyte %inhibition @ 5 µM
Protocol: as §2, §3

[4] = biological target: T2, recombinant PfCLK3 kinase domain (Plasmodium falciparum, UniProt Q8IIL5); assay: ADP-Glo kinase assay, PfCLK3; type: biochemical
T2 sequence (Q8IIL5 317-694): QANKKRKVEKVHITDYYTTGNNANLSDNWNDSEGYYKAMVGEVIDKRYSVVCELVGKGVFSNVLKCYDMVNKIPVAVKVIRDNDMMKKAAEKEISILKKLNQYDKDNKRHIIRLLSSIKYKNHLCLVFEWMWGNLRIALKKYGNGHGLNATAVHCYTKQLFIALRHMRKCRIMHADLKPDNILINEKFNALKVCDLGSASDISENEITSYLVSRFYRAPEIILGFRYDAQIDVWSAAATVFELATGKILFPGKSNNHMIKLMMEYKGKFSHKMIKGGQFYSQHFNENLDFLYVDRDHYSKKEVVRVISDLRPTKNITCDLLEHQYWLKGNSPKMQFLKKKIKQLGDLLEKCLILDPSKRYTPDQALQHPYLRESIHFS
Text: as §1

[5] = tested on: late-stage (stage IV/V) gametocytes, P. falciparum 3D7elo1-pfs16-CBG99; assay: Luciferase reporter assay, late-stage gametocytes; type: cell-based; settings: Plasmodium falciparum, 48 h, read-out: Pf Late stage gametocyte %inhibition @ 5 µM
Protocol: as §2, §3

[6] = 10 µM ATP, read-out: IC50 PvPI4Kβ
[7] = 10 µM ATP, read-out: IC50 PfCLK3

SMILES | CC50 at 48 h [1] [nM] | IC50 (recombinant PfPKG) [nM] | IC50 [2] [nM] | IC50 (recombinant PvPI4Kβ; [6]) [nM] | inhibition at 5 µM [3] [%] | IC50 [4, 7] [nM] | inhibition at 5 µM [5] [%] | CC50 at 48 h ([1]; CHO cells) [nM] | IC50 (recombinant PfPKG; 10 µM ATP, read-out: IC50 PfPKG) [nM] | IC50 (recombinant PvPI4Kβ) [nM] | IC50 [4] [nM] | Pf Early stage gametocyte %inhibition @ 5 µM [3]
CCN(CCO)CCCOc1ccc2c(Nc3cc(CC(=O)Nc4cccc(F)c4)n[nH]3)ncnc2c1 [AZD-1152, AZD-1152-HQPA] | > 15000 | > 10000 | 490 | > 10000 | 31.1 | > 10000 | 38.2 | – | – | – | – | –
O=C(Nc1cccc(Nc2nccc(Nc3cccc(C(F)(F)F)c3)n2)c1)C1CC1 [Aki III, Aurora kinase inhibitor III] | – | – | 1600 | – | 27.7 | – | 3.5 | 2400 | 2700 | > 10000 | > 10000 | –
O=C(Nc1c[nH]nc1-c1nc2ccc(CN3CCOCC3)cc2[nH]1)NC1CC1 [AT83, AT9283] | 4500 ± 2100 | 9300 | 105 | > 10000 | 53.5 | 100 | 48.9 | – | – | – | – | –
COc1cc(N2CCC(N3CCN(C)CC3)CC2)ccc1Nc1ncc(Cl)c(Nc2ccccc2S(=O)(=O)C(C)C)n1 [TAE684, NVP-TAE684] | 2000 | 2000 | 227 | > 10000 | ~70 | > 10000 | 50.8 | – | – | – | – | 65,4 ± 1,7%
CCN1CCN(C(=O)Cc2ccc(Nc3ncc(F)c(Nc4ccc(C(=O)Nc5ccccc5Cl)cc4)n3)cc2)CC1 [AAi I, Aurora A Inhibitor I] | 3600 | 1700 | 903 | > 10000 | ~70 | 2400 | 48.7 | – | – | – | – | 73,0 ± 3,1%
COc1cc2c(Nc3ccc(NC(=O)c4ccccc4)cc3)ncnc2cc1OCCCN1CCOCC1 [ZM-39, ZM-447439] | – | > 10000 | 374 | > 10000 | 32.7 | > 10000 | 21.5 | > 15000 | – | – | – | –
